Data reported in patent US20170035724A1, “MAMMALIAN SIRT1 ACTIVATOR” (priority 2015, published 2017).

Columns and labels:
mammalian SIRT1 [1] = experiment: p53 deacetylation in A549 cells treated with corylin and nicotinamide, Western blotting; assay type: cell-based, human; conditions: nicotinamide 1 hour before corylin, then UV, FIG. 6
Experimental: Nicotinamide is a mammalian SIRT1 inhibitor (Exp Hematol. 2012; 40(4): 342-55), and the compound is used to confirm the foregoing result. After human lung cancer A549 cells were cultured at 37° C. overnight, the cells were treated with a media containing nicotinamide, and then cultured at 37° C. for 1 hour. Corylin in various concentrations was added to the media, and the cells were cultured at 37° C. for 4 hours. After which, the cells were emitted with UV to acetylate p53, and cultured at 37° C. for 4 hours again. Finally, the total protein in the cells were extracted and analyzed using Western blotting.

p53 [2] = experiment: UV-induced p53 acetylation in human lung cancer A549 cells, Western blotting; assay type: cell-based; conditions: corylin in various concentrations, 4 hours before UV, FIG. 5B
Experimental: (§1) After human lung cancer A549 cells or human osteosarcoma U2OS cells were cultured at 37° C. overnight, the cells were treated with various substances, and then cultured at 37° C. for 4 hours. After that, the cells were emitted with UV to acetylate p53, and cultured at 37° C. for 4 hours again. Finally, total protein extracted from the cells was analyzed using Western blotting.

PNC1 [3] = experiment: PNC1 translation (Pnc1 protein) in corylin-treated yeast cells, Western blotting; assay type: cell-based; conditions: 50 μM corylin for 10 hours; compared with calorie restriction for 10 hours as positive control; FIG. 4C
Experimental: To confirm the foregoing result, after yeast cells were treated with corylin in various concentrations for various periods, total protein therein was extracted and analyzed using Western blotting.

mammalian SIRT1 [4] = experiment: Mammalian SIRT1 expression in human osteosarcoma U2OS cells, Western blotting; assay type: cell-based; conditions: increases with culturing period, FIG. 5A
Experimental: Human osteosarcoma U2OS cells were seeded and cultured at 37° C. overnight, and then the cells were treated with corylin and cultured at 37° C. again. After various culturing periods, total protein in the treated cells was extracted and analyzed using Western blotting.

wild type yeast cells = experiment: Replicative life span of wild type yeast cells (passage number); assay type: cell-based
Experimental: (§2) A yeast colony was selected and cultured in a YEPD culture media. When the OD value of the media was at 0.6-0.8, 20 μl of the media was added to a YEPD solid media, and then 20-30 yeast cells were selected using a tetrad dissection microscope manipulation system. The selected yeast cells were cultured at 30° C. for 3-5 hours to divide into first generation yeast cells. Afterwards, the first generation yeast cells were cultured at 30° C. for 3-5 hours to divide into second generation yeast cells. The culturing step was repeated until final generation yeast cells which cannot divide anymore existed. Finally, the yeast cells' passage number was counted according to the total division number.

p53 [5] = experiment: UV-induced p53 acetylation in human osteosarcoma U2OS cells, Western blotting; assay type: cell-based; conditions: corylin in various concentrations, 4 hours before UV, FIG. 5C
Experimental: as §1

PNC1 [6] = experiment: PNC1 transcription in corylin-treated yeast cells (PCR and real-time PCR); assay type: cell-based; conditions: various treatment periods; increases with treatment period; FIGS. 4A and 4B
Experimental: After yeast cells were treated with corylin for various periods, total RNA in the treated yeast cells was extracted. Then, the cDNA corresponding to the extracted RNA was formed using reverse transcription. Finally, the cDNA was analyzed using polymerase chain reaction and real-time polymerase chain reaction.

sir2-mutant yeast cells = experiment: Replicative life span of sir2-mutant yeast cells (passage number); assay type: cell-based; conditions: sir2-mutant yeast cells treated with corylin; untreated 9.8; FIG. 2
Experimental: as §2

NC(=O)c1cccnc1 [nicotinamide, Nicotinamide]
effect on p53 deacetylation caused by corylin (mammalian SIRT1 [1]): can inhibit the p53 deacetylation caused by corylin

corylin
acetylation of p53 induced by UV (p53 [2]): can repress the acetylation of p53 induced by UV
Pnc1 expression (PNC1 translation) (PNC1 [3]): can obviously express Pnc1
mammalian SIRT1 expression (mammalian SIRT1 [4]): can promote the expression of mammalian SIRT1
effective concentration on replicative life span of a yeast cell (wild type yeast cells; FIG. 3): 2 to 100 µM
preferable effective concentration on replicative life span of a yeast cell (wild type yeast cells; FIG. 3, 'preferably'): 2 to 15 µM
passage number (replicative life span) (wild type yeast cells; wild type yeast cells treated with corylin, untreated 26.9, FIG. 2): 33.2
acetylation of p53 induced by UV (p53 [5]): can repress the acetylation of p53 induced by UV
PNC1 transcription (PNC1 [6]): can promote the transcription of PNC1
passage number (replicative life span) (sir2-mutant yeast cells): 10.6
